The values below are quoted from earlier work in patent US8307894B2, “Composition and method for inhibiting the deleterious effects of sulfate reducing bacteria” (priority 2009, dated 2012).

The subject of series [1] is insects and aquatic life including fish.
Test in series [2]: not given
This is another data set of the same source.

Series [3] concerns sulfate reducing bacteria. As to conditions: government study (12/04).

Where two headings read alike, the source gives them in different places.

In the case of `C=C(C)[C@H]1Cc2c(ccc3c2O[C@@H]2COc4cc(OC)c(OC)cc4[C@@H]2C3=O)O1` [rotenone], the toxicity result in series [1] is on record as “extremely toxic”; in the series on humans and other mammals it was “mildly toxic”. The Solubility entry is, setting by setting: (in ethanol) “slightly soluble”; (in ether and acetone) “Soluble”. Besides, in series [2] (breaks down when exposed to sunlight), the “lifetime in the environment” value is given as “six”. Besides, the persistence in water result in series [2] (in water) is recorded as “six”.

As to `[O]=[Mo](=[O])([O-])[O-]` [molybdate], the “inhibition of sulfate reducing bacteria” value in series [3] is recorded as “possible candidates as inhibitors”.
